Experimental data from publication PMC5786306, “An AKAP-Lbc-RhoA interaction inhibitor promotes the translocation of aquaporin-2 to the plasma membrane of renal collecting duct principal cells” (PLoS ONE, 2018).

What was measured:
[1] = tested on: AQP2 localization and F-actin in primary IMCD cells; assay: Immunofluorescence microscopy of AQP2 and F-actin in primary IMCD cells; type: cell-based, rat
Description: Primary rat renal inner medullary collecting duct (IMCD) cells were obtained and cultured as previously described. AQP2 was detected with specific rabbit (H27 antibody) and secondary Cy3-coupled antibodies, and F-actin was visualized with Alexa Fluor 647-Phalloidin by laser scanning microscopy (LSM780; Zeiss Jena, Germany) as described.
Fig 8 Scaff10-8 promotes the redistribution of AQP2 to the plasma membrane of primary IMCD cells, which is independent of cAMP elevation and associated with depolymerization of F-actin. (A) Upper panel. IMCD cells were treated with DMSO (1%; control), the solvent of Scaff10-8, or forskolin (10 μM, 30 min) to stimulate cAMP synthesis. Lower panels: The cells were treated for 1 hour with Scaff10-8 (30 μM) alone (control) or with Scaff10-8 and forskolin. Forskolin (10 μM) was added for the final 30 min of Scaff10-8 incubation. AQP2 (green) was detected with specific primary and Cy3-coupled secondary antibodies, F-actin (red) with Alexa Fluor 647-Phalloidin and nuclei with DAPI (blue). Signals were visualized using a laser scanning microscope. Representative images are shown. n = 3. The magnified views were derived from the indicated boxes. (B) The signal intensities arising from intracellular and plasma membrane AQP2 were recorded, related to nuclear signal intensities, and the ratios of plasma membrane to intracellular fluorescence signal intensities were calculated (n = 30 cells per condition). Ratios > 1 indicate a predominant localization of AQP2 at the plasma membrane. Statistically significant differences were calculated using one-way ANOVA with posthoc Bonferroni. Mean ± SEM; *, p ≤ 0.05; *** p ≤ 0.001.

[2] = tested on: AQP2 insertion into the plasma membrane of IMCD cells; assay: Biotinylation of cell surface proteins; type: cell-based, rat; settings: Scaff10-8 30 μM, 1 or 24 h, forskolin 30 μM, 30 min
Description: The assay was performed according to Bogum et al.. IMCD cells were treated with Scaff10-8 at a concentration of 30 μM for 1 or 24 h (0.3% DMSO final concentration). DMSO (0.3%) was used as a control for the 24 h of incubation. Cells were stimulated with forskolin (30 min, 30 μM). Cells were washed twice with ice-cold PBS and incubated with biotinylation buffer (500 μg Biotin per well; 10 mM triethanolamine; 150 mM NaCl; 1 mM MgCl2; 0.1 mM CaCl2; pH 8.0) for 60 min at 4°C. After two washing steps with biotinylation buffer, cells were incubated for 10 min with quenching buffer (50 mM NH4Cl in PBS) at 4°C. Lysates were prepared using biotinylation lysis buffer 1 (SLB; 0.5% Triton X-100; 0.2% BSA; Complete mini EDTA-free). Lysates were sonicated and incubated for 20 min at 37°C. Cell debris was removed by centrifugation (30 min, 15,000x g, 4°C). Lysates were incubated with 80 μl streptavidin agarose beads at 4°C overnight. Beads were washed three times with biotinylation lysis buffer 1 and 2 (SLB; 0.5% Triton X-100; Complete mini EDTA-free). Proteins were eluted using sample buffer and analyzed by Western blotting.
(A) IMCD cells were treated with either compound (30 μM) or DMSO for 1 or 24 h. Membrane proteins were biotinylated followed by precipitation with streptavidin agarose beads. […] (B) Signals from A were quantified by densitometric analysis. […]

[3] = tested on: hypercholesterolemic patients; design: method as in PMID 26575415, PMID 21858457; settings: cited from earlier work
untagged RhoA = biological target: T1, untagged RhoA (human, UniProt P61586 1-193); assay: MST; GFP-AKAP-Lbc/DHPH constant at 150 nM, unlabeled RhoA titrated 36.01 nM-590 uM in MST buffer; 1 h at room temperature; Monolith NT.115; settings: both partners purified
T1 construct: RhoA; also called unlabeled RhoA; source: recombinant, purified
T1 sequence (P61586 whole entry): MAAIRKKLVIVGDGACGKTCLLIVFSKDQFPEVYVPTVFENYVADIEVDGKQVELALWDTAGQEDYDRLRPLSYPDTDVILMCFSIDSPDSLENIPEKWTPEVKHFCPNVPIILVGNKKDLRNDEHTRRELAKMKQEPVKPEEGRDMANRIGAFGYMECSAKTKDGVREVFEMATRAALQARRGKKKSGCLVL

With `C=C[C@@]1(C)CC(=O)[C@]2(O)[C@@]3(C)[C@@H](O)CCC(C)(C)[C@@H]3[C@H](O)[C@H](OC(C)=O)[C@@]2(C)O1` [forskolin, reference compound] the F-actin ([1]; Scaff10-8 30 μM alone, forskolin alone) was “caused depolymerization”, the “localization of AQP2” value ([1]; Scaff10-8 30 μM, 1 h, no forskolin, forskolin 10 μM, 30 min) was “induced its redistribution to the plasma membrane” and the “insertion of AQP2 into the plasma membrane” value [2] was “induced the membrane insertion of AQP2”.

In the case of `CCC(C)(C)C(=O)O[C@H]1C[C@@H](C)C=C2C=C[C@H](C)[C@H](CC[C@@H]3C[C@@H](O)CC(=O)O3)[C@H]21` [simvastatin], the “diuresis and urine osmolality” value [3] is listed as “reduced diuresis and increased urine osmolality”.

B1: GFP-AKAP-Lbc/DHPH (domain or fragment)
chain: EAESWSRIIDSKFLKQQKKDVVKRQEVIYELMQTEFHHVRTLKIMSGVYSQGMMADLLFEQQMVEKLFPCLDELISIHSQFFQRILERKKESLVDKSEKNFLIKRIGDVLVNQFSGENAERLKKTYGKFCGQHNQSVNYFKDLYAKDKRFQAFVKKKMSSSVVRRLGIPECILLVTQRITKYPVLFQRILQCTKDNEVEQEDLAQSLSLVKDVIGAVDSKVASYEKKVRLNEIYTKTDSKSIMRMKSGQMFAKEDLKRKKLVRDGSVFLKNAAGRLKEVQAVLLTDILVFLQEKDQKYIFASLDQKSTVISLKKLIVREVAHEEKGLFLISMGMTDPEMVEVHASSKEERNSWIQIIQDTINTL
modifications: GFP and His6 tags left out. Limits are codons 1972-2335, from bp 5,914-7,005 of CCDS32320.1 (human CDS); the nucleotide changes only removed rare codons. The range encloses the annotated DH …
Molecule B1 has a Kd (untagged RhoA) of 42 µM.
